Results from US11738031B2, “Compositions and methods for preventing or treating muscle conditions” (The Board of Trustees of the Leland Stanford Junior …, priority 2017, dated 2023).

How the values were obtained:
[1] = tested on: endogenous MuSCs in tibialis anterior (TA) muscles; assay: BLI of endogenous MuSC expansion after intramuscular bupivacaine/dmPGE2 (Example 4); type: in vivo, mouse
Experimental: Double-transgenic Pax7^CreERT2;Rosa26-LSL-Luc mice were generated by crossing Pax7^CreERT2 mice and Rosa26-LSL-Luc mice obtained from Jackson Laboratory (Stock #005125). These genotypes were validated by appropriate PCR-based strategies. All mice from transgenic and wild-type strains were of young age (2-4 months). All experiments were conducted using age and gender-matched controls. As depicted in the experimental scheme shown in FIG. 23A, mice were treated with five consecutive daily intraperitoneal injections of tamoxifen to activate luciferase expression under the control of the Pax7 promoter. A week after the last tamoxifen injection, the tibialis anterior (TA) muscles were injected intramuscularly with 50 μL of a drug mixture containing 0.125%, 0.25%, or 0.5% bupivacaine (BPV) (Cayman Chemical Cat #16618) and 10 μg 16,16-dimethyl prostaglandin E2 (dmPGE2; Tocris, Catalog #4027) using a 30 gauge needle on a Hamilton syringe. The contralateral TA received 50 μL of a mixture containing 0.5% bupivacaine (BPV) and DMSO vehicle as baseline sham control. Bioluminescence was assayed at days 3, 7, 10 and 14 post-injury.
Bioluminescence imaging (BLI) was performed using a Xenogen-100 system, as previously described. Briefly, mice were anesthetized using isofluorane inhalation and administered 120 μL D-luciferin (0.1 mmol/kg, reconstituted in PBS; Caliper LifeSciences) by intraperitoneal injection. BLI was acquired with between 5-60 second exposure at F-stop=1.0 at 5 minutes after luciferin injection. Digital images were recorded and analyzed using Living Image software (Caliper LifeSciences). Images were analyzed with a consistent region-of-interest (ROI) placed over each hindlimb to calculate a bioluminescence signal. A bioluminescence signal was calculated in radiance (p s^−1 cm^−2 sr^−1) value of 10^4 to define a positive threshold signal over background. BLI imaging was performed bi-weekly for 2 weeks after coinjection of BPV with dmPGE2 or vehicle.
The data in FIGS. 23A-C and 24 are shown as the mean±s.e.m. with n=6 mice. […]

aged MuSCs = assay: Aged MuSC proliferation in culture; type: cell-based, mouse
Experimental: Muscle stem cell culture, treatment and lentiviral infection: Following isolation, we resuspended MuSCs in myogenic cell culture medium containing DMEM/F10 (50:50), 15% FBS, 2.5 ng ml^−1 fibroblast growth factor-2 (FGF-2 also known as bFGF) and 1% penicillin-streptomycin. We seeded MuSC suspensions at a density of 500 cells per cm^2 surface area. We maintained cell cultures at 37° C. in 5% CO2 and changed medium daily. For PGE2, 15-PGDH inhibitor and EP4 receptor antagonist treatment studies, we added 1-200 ng/ml Prostaglandin E2 (Cayman Chemical) (unless specified in the figure legends, 10 ng/ml was the standard concentration used), and/or 1 μM EP4 antagonist (ONO-AE3-208, Cayman Chemical), or 1 μM 15-PGDH inhibitor (SW033291, Cayman Chemical) to the MuSCs cultured on collagen coated dishes for the first 24 h. The cells were then trypsinized and cells reseeded onto hydrogels for an additional 6 days of culture. All treatments were compared to their solvent (DMSO) vehicle control. For stripped serum assays, we resuspended isolated MuSCs in medium containing DMEM/F10 (50:50), 15% charcoal stripped FBS (Gibco, cat #12676011), 2.5 ng ml^−1 bFGF and 1% penicillin-streptomycin. […]
Proliferation assays: To assay proliferation, we used three different assays (hemocytometer, VisionBlue, and EdU). […] For hemocytometer cell number count, we collected cells at indicated timepoints by incubation with 0.5% trypsin in PBS for 5 min at 37° C. and quantified them using a hemocytometer at least 3 times. Additionally, we used the VisionBlue Quick Cell Viability Fluorometric Assay Kit (BioVision, catalog #K303) as a readout for cell growth in culture. Briefly, we incubated MuSCs with 10% VisionBlue in culture medium for 3 h, and measured fluorescence intensity on a fluorescence plate reader (Infinite M1000 PRO, Tecan) at Ex=530-570 nm, Em=590-620 nm. […] We quantified EdU positive cells using the MetaMorph Image Analysis software (Molecular Devices). Data analyses were blinded, where researchers performing cell scoring were unaware of the treatment condition given to sample groups analyzed.

[2] = PGE2 20 μg (or 4 mg/kg); cited from earlier work

| Structure (SMILES) | log fold change in BLI two weeks after injection ([1]; 50 μL into TA, BPV plus 10 μg dmPGE2 compared to BPV/vehicle, dmPGE2 only group) | muscle regeneration vs dmPGE2 dose ([1]; as stated in summary of Example 4) | aged MuSC proliferation in charcoal stripped serum medium (aged MuSCs; PGE2 10 ng/ml every two days for 7 days) | aged MuSC proliferation and Pax7 expression after 1-day pulse (aged MuSCs; PGE2 10 ng/ml or SW033291 1 μM, 24 hr, assayed at day 7) | tolerability of proposed maximum dose in rodents [2] |
| --- | --- | --- | --- | --- | --- |
| CCCCC(C)(C)[C@H](O)/C=C/[C@H]1[C@H](O)CC(=O)[C@@H]1C/C=C\CCCC(=O)O [dmPGE2, 16,16-dimethyl prostaglandin E2] | No detectable change | more pronounced muscle regeneration | – | – | – |
| CCCCC[C@H](O)/C=C/[C@H]1[C@H](O)CC(=O)[C@@H]1C/C=C\CCCC(=O)O [PGE2, prostaglandin E2] | – | – | rescued by addition of PGE2 alone | characteristic increase in proliferation and maintenance of Pax7 expression | without deleterious effects |
